System: SARS-CoV-2
Assay: microbe, parasite or virus in culture
Settings: Severe acute respiratory syndrome coronavirus 2, Vero C1008, 48 h

| Structure (SMILES) | IC50 | IC50 (read-out: pIC50 (converted)) |
| --- | --- | --- |
| O=C(CNC(=O)c1cccc(C(F)(F)F)c1)NC1CN([C@H]2CC[C@@](O)(c3cncs3)CC2)C1 [JNJ-41443532] | > 20 µM | > 20 µM |
| O=C(Nc1cnccc1Cl)N1CCN(Cc2ccc3c(c2)OC(F)(F)O3)CC1 [JNJ-42165279] | > 20 µM | > 20 µM |
| COCC(=O)Nc1cc(COc2ccc(NC(=O)Nc3cc(C(C)(C)C)nn3-c3ccc(C)cc3)c3ccccc23)ccn1 [JNJ-49095397] | > 20 µM | > 20 µM |
| C[C@@H]1c2nnn(-c3ncc(F)cn3)c2CCN1C(=O)c1cccc(C(F)(F)F)c1Cl [JNJ-54175446] | > 20 µM | > 20 µM |
| CO[C@@H]1[C@@H](O[C@@H]2O[C@H](C)[C@@H](O[C@H]3C[C@@](C)(O)[C@@H](OC(=O)CC(C)C)[C@H](C)O3)[C@H](N(C)C)[C@H]2O)[C@@H](CC=O)C[C@@H](C)[C@@H](O)/C=C/C=C/C[C@@H](C)OC(=O)C[C@H]1OC(C)=O [JOSAMYCIN] | > 20 µM | > 20 µM |
| O=C1C=CC(=O)c2c(O)cccc21 [JUGLONE] | > 20 µM | > 20 µM |
| O=c1c(O)c(-c2ccc(O)cc2)oc2cc(O)cc(O)c12 [KAEMPFEROL] | > 20 µM | > 20 µM |
| C=C(C)[C@H]1CN[C@H](C(=O)O)[C@H]1CC(=O)O [KAINIC ACID] | > 20 µM | > 20 µM |
| NC[C@H]1O[C@H](O[C@H]2[C@H](O)[C@@H](O[C@H]3O[C@H](CO)[C@@H](O)[C@H](N)[C@H]3O)[C@H](N)C[C@@H]2N)[C@H](O)[C@@H](O)[C@@H]1O [KANAMYCIN] | > 20 µM | > 20 µM |
| CNC1(c2ccccc2Cl)CCCCC1=O (stereo not given) [KETAMINE] | > 20 µM | > 20 µM |
| O=C(c1ccc(F)cc1)C1CCN(CCn2c(=O)[nH]c3ccccc3c2=O)CC1 [KETANSERIN] | > 20 µM | > 20 µM |
| C[C@H]1[C@H]2C(=O)c3ccc(O)cc3[C@]1(C)CCN2CC1CC1 [KETAZOCINE] | > 20 µM | > 20 µM |
| CCC(=O)C1(c2cccc(O)c2)CCN(C)CC1 [KETOBEMIDONE] | > 20 µM | > 20 µM |
| CC(C(=O)O)c1cccc(C(=O)c2ccccc2)c1 (stereo not given) [KETOPROFEN] | > 20 µM | > 20 µM |
| O=C(c1ccccc1)c1ccc2n1CCC2C(=O)O (stereo not given) [KETOROLAC] | > 20 µM | > 20 µM |
| CN1CCC(=C2c3ccccc3CC(=O)c3sccc32)CC1 [KETOTIFEN] | > 20 µM | > 20 µM |
| COc1c2occc2c(OC)c2c(=O)cc(C)oc12 [KHELLIN] | > 20 µM | > 20 µM |
| OC[C@H]1O[C@@H](n2cnc3c(NCc4ccco4)ncnc32)[C@H](O)[C@@H]1O [KINETIN RIBOSIDE] | > 20 µM | > 20 µM |
| c1coc(CNc2ncnc3[nH]cnc23)c1 [KINETIN] | > 20 µM | > 20 µM |
| O=c1cc(CO)occ1O [KOJIC ACID] | > 20 µM | > 20 µM |

| Structure (SMILES) | IC50 | IC50 (read-out: pIC50 (converted)) |
| --- | --- | --- |
| CCCCCCCOC(=O)NC1=NC(=O)N([C@H]2C[C@H](O)[C@@H](CO)O2)CN1 [KP-1461] | > 20 µM | > 20 µM |
| O=C(c1ccc(/C=C/c2n[nH]c3ccccc23)cc1)N1CCNCC1 [KW-2449] | > 20 µM | > 20 µM |
| CCc1c(O)cc(O)c(C(=O)c2ccc(OCCN3CCOCC3)c(OC)c2)c1CC(=O)N(CCOC)CCOC [KW-2478 FREE BASE] | > 20 µM | > 20 µM |
| Nc1ccccc1C(=O)CC(N)C(=O)O (stereo not given) [KYNURENINE] | > 20 µM | > 20 µM |
| Cc1cccc(NC(=O)N[C@@H]2N=C(c3ccccc3)c3ccccc3N(C)C2=O)c1 [L-365260] | > 20 µM | > 20 µM |
| NC(=O)NCCC[C@H](N)C(=O)O [L-CITRULLINE] | > 20 µM | > 20 µM |
| C[C@H](O)C(=O)O [L-LACTIC ACID] | > 20 µM | > 20 µM |
| N[C@H](CO)Cc1ccccc1 [L-PHENYLALANINOL] | > 20 µM | > 20 µM |
| CC(CCc1ccccc1)NCC(O)c1ccc(O)c(C(N)=O)c1 (stereo not given) [LABETALOL] | > 20 µM | > 20 µM |
| OC[C@@H](O)[C@@H](O[C@@H]1O[C@H](CO)[C@H](O)[C@H](O)[C@H]1O)[C@H](O)[C@@H](O)CO [LACTITOL] | > 20 µM | > 20 µM |
| OC[C@H]1O[C@@H](O[C@@H]2[C@@H](CO)O[C@](O)(CO)[C@H]2O)[C@H](O)[C@@H](O)[C@H]1O [LACTULOSE] | > 20 µM | > 20 µM |
| O=C(C[S+]([O-])Cc1ccco1)NC/C=C\COc1cc(CN2CCCCC2)ccn1 (stereo not given) [LAFUTIDINE] | > 20 µM | > 20 µM |
| N=C(N)c1ccc(C(=O)N[C@@H](Cc2ccc(O)cc2)C(=O)N2CCC(OCC(=O)O)CC2)cc1 [LAMIFIBAN] | > 20 µM | > 20 µM |
| Nc1ccn([C@@H]2CS[C@H](CO)O2)c(=O)n1 [LAMIVUDINE] | > 50.1 µM | > 50.1 µM |
| Nc1nnc(-c2cccc(Cl)c2Cl)c(N)n1 [LAMOTRIGINE] | > 20 µM | > 20 µM |
| Cc1c(OCC(F)(F)F)ccnc1C[S+]([O-])c1nc2ccccc2[nH]1 (stereo not given) [LANSOPRAZOLE] | > 20 µM | > 20 µM |
| CC(C)=CCC1=C(O)C(=O)c2ccccc2C1=O [LAPACHOL] | > 20 µM | > 20 µM |
| COc1cccc([C@H]2O[C@H](CC(=O)N3CCC(CC(=O)O)CC3)C(=O)N(CC(C)(C)COC(C)=O)c3ccc(Cl)cc32)c1OC [LAPAQUISTAT ACETATE] | > 20 µM | > 20 µM |
| CS(=O)(=O)CCNCc1ccc(-c2ccc3ncnc(Nc4ccc(OCc5cccc(F)c5)c(Cl)c4)c3c2)o1 [LAPATINIB] | > 20 µM | > 20 µM |
| CCN(C(=O)c1c(O)c2c(Cl)cccc2n(C)c1=O)c1ccccc1 [LAQUINIMOD] | > 20 µM | > 20 µM |

| Structure (SMILES) | IC50 | IC50 (read-out: pIC50 (converted)) |
| --- | --- | --- |
| Oc1ccc2c(c1)CC[C@H](c1ccccc1)[C@@H]2c1ccc(OCCN2CCCC2)cc1 [LASOFOXIFENE] | > 20 µM | > 20 µM |
| CC(C)OC(=O)CCC/C=C\C[C@@H]1[C@@H](CC[C@@H](O)CCc2ccccc2)[C@H](O)C[C@@H]1O [LATANOPROST] | > 20 µM | > 20 µM |
| Cc1ccc2c(c1)c1c(n2CCc2ccc(C)nc2)CCN(C)C1 [LATREPIRDINE] | > 20 µM | > 20 µM |
| COc1ccc(CC2c3cc(OC)c(OC)cc3CCN2C)cc1OC (stereo not given) [LAUDANOSINE] | > 20 µM | > 20 µM |
| CCCCCCCCCCCCN1CCCCCC1=O [LAUROCAPRAM] | > 20 µM | > 20 µM |
| Cn1nc(CO)nc1NCCCOc1cccc(CN2CCCCC2)c1 [LAVOLTIDINE] | > 20 µM | > 20 µM |
| Cc1cc(OC(=O)c2c(C)cc(O)cc2O)cc(O)c1C(=O)O [LECANORIC ACID] | > 20 µM | > 20 µM |
| Cc1oncc1C(=O)Nc1ccc(C(F)(F)F)cc1 [LEFLUNOMIDE] | > 20 µM | > 20 µM |
| CCN(CC)CCOc1ccccc1-n1c(C)ccc1-c1ccccc1 [LEIOPYRROLE] | > 20 µM | > 20 µM |
| Nc1cccc2c1CN(C1CCC(=O)NC1=O)C2=O (stereo not given) [LENALIDOMIDE] | > 20 µM | > 20 µM |
| O=C(CCCN1CCC(C(=O)c2ccc(F)cc2)CC1)c1ccc(F)cc1 [LENPERONE] | > 20 µM | > 20 µM |
| COc1cc2nccc(Oc3ccc(NC(=O)NC4CC4)c(Cl)c3)c2cc1C(N)=O [LENVATINIB] | > 20 µM | > 20 µM |
| COC(=O)C1=C(C)NC(C)=C(C(=O)OC(C)(C)CN(C)CCC(c2ccccc2)c2ccccc2)C1c1cccc([N+](=O)[O-])c1 (stereo not given) [LERCANIDIPINE] | > 20 µM | > 20 µM |
| CC(C)N1CCN(c2ccc(Nc3ncc4cc5n(c4n3)C3(CCCCC3)CNC5=O)nc2)CC1 [LEROCICLIB] | > 20 µM | > 20 µM |
| CCc1nn(CCO)c(CC)c1Oc1cc(C#N)cc(C#N)c1 [LERSIVIRINE] | > 20 µM | > 20 µM |
| C[C@]12O[C@H](C[C@]1(O)CO)n1c3ccccc3c3c4c(c5c6ccccc6n2c5c31)CNC4=O [LESTAURTINIB] | > 20 µM | > 20 µM |
| N#CC(c1ccc(F)cc1)c1c(Cl)cc(-n2ncc(=O)[nH]c2=O)cc1Cl (stereo not given) [LETRAZURIL] | > 20 µM | > 20 µM |
| N#Cc1ccc(C(c2ccc(C#N)cc2)n2cncn2)cc1 [LETROZOLE] | > 20 µM | > 20 µM |
| CC(C)C[C@H](N)C(=O)O [LEUCINE] | > 20 µM | > 20 µM |
| Nc1nc(=O)c2c([nH]1)NCC(CNc1ccc(C(=O)N[C@@H](CCC(=O)O)C(=O)O)cc1)N2C=O (stereo not given in full) [LEUCOVORIN] | > 20 µM | > 20 µM |
